Where “and” joins values, the source holds several entries; their conditions need not be identical. Equal values may be shown once. After the bases stand the sugars from the 5' end (letter, count) and the backbone: PS all phosphorothioate, else s phosphorothioate and o phosphodiester by linkage. Methylation of C is not given here. e = 2'-O-(2-methoxyethyl) (MOE); k = constrained ethyl (cEt); d = 2'-deoxy (DNA)
Biological target: SOD1
Details: ASO

Q: With “TTAATGTTTATCAGGA (sugars kekeddddddddekek, linkages s1 o3 s8 o1 s2)” as the sequence, how does the target mRNA inhibition (A431, 0.12 µM) read?
A: 3%

Q: And the target mRNA inhibition (A431, 0.6 µM)?
A: 45%

Q: What about the target mRNA inhibition (A431, 3 µM) of the same sequence?
A: 65%

Q: What about the target mRNA inhibition (A431, 15 µM) of the same sequence?
A: 81%

Q: And the target mRNA inhibition (HepG2, 0.222 µM)?
A: 53%

Q: What about the target mRNA inhibition (HepG2, 0.667 µM) of the same sequence?
A: 82%

Q: What about the target mRNA inhibition (HepG2, 2 µM) of the same sequence?
A: 91%

Q: And the target mRNA inhibition (HepG2, 6 µM)?
A: 96%

Q: How did the target mRNA inhibition (A431, 0.062 µM) turn out when “TTAATGTTTATCAGGAT (sugars e4 d8 k2 e3, linkages s1 o2 s9 o2 s2)” was run?
A: 26%

Q: And the target mRNA inhibition (A431, 0.185 µM)?
A: 30%

Q: And the target mRNA inhibition (A431, 0.556 µM)?
A: 58%

Q: What about the target mRNA inhibition (A431, 0.6 µM) of the same sequence?
A: 50%

Q: And the target mRNA inhibition (A431, 1.667 µM)?
A: 64%

Q: And the target mRNA inhibition (A431, 5 µM)?
A: 68%

Q: What about the target mRNA inhibition (A431, 15 µM) of the same sequence?
A: 78%

Q: And the target mRNA inhibition (SH-SY5Y, 0.062 µM)?
A: 11%

Q: What about the target mRNA inhibition (SH-SY5Y, 0.185 µM) of the same sequence?
A: 44%

Q: And the target mRNA inhibition (SH-SY5Y, 0.556 µM)?
A: 53%

Q: What about the target mRNA inhibition (SH-SY5Y, 1.667 µM) of the same sequence?
A: 75%

Q: What about the target mRNA inhibition (SH-SY5Y, 5 µM) of the same sequence?
A: 77%

Q: What about the target mRNA inhibition (SH-SY5Y, 15 µM) of the same sequence?
A: 93%

Q: How did the target mRNA inhibition (HepG2, 4 µM) turn out when “TTATCAGGATACATTTC (sugars e2 k2 d8 k2 e3, PS)” was run?
A: 57%

Q: “TTATCAGGATACATTTC (sugars e2 k2 d9 k2 e2, PS)” was tested. Which target mRNA inhibition (HepG2, 4 µM) did it give?
A: 67%

Q: For “TTATTCACAGGCTTGAA (sugars e3 k2 d7 k2 e3, PS)”, which target mRNA inhibition (HepG2, 3 µM) is on record?
A: 10%

Q: For “TTCACAGGCTTGAATGA (sugars e2 k2 d9 k2 e2, PS)”, which target mRNA inhibition (HepG2, 5 µM) is on record?
A: 16%

Q: For “TTCACTGGTCCATTACT (sugars e3 k2 d7 k2 e3, PS)”, which target mRNA inhibition (HepG2, 3 µM) is on record?
A: 14%

Q: With “TTCAGTCAGTCCTTTAATGC (sugars e5 d10 e5, PS)” as the sequence, how does the target mRNA inhibition (HepG2, 5 µM) read?
A: 24% and 21%

Q: For “TTCCACCTTTGCCCAAG (sugars e3 k2 d7 k2 e3, PS)”, which target mRNA inhibition (HepG2, 3 µM) is on record?
A: 87%

Q: With “TTCCCCACACCTTCACT (sugars e3 k2 d7 k2 e3, PS)” as the sequence, how does the target mRNA inhibition (HepG2, 3 µM) read?
A: 8%

Q: With “TTCCTTCTGCTCGAAAT (sugars e3 k2 d7 k2 e3, PS)” as the sequence, how does the target mRNA inhibition (HepG2, 3 µM) read?
A: 13%

Q: What does the source list for “TTCTACAGCTAGCAGGA (sugars e2 k2 d9 k2 e2, PS)”?
A: target mRNA inhibition (HepG2, 0.1875 µM): 10%; target mRNA inhibition (HepG2, 0.75 µM): 57%; target mRNA inhibition (HepG2, 3 µM): 84%; target mRNA inhibition (HepG2, 4 µM): 79%; target mRNA inhibition (HepG2, 12 µM): 94%

Q: How did the target mRNA inhibition (HepG2, 5 µM) turn out when “TTCTCACTACAGGTACTTTA (sugars e5 d10 e5, PS)” was run?
A: 28%

Q: How did the target mRNA inhibition (HepG2, 3 µM) turn out when “TTGGATTCTTTTAATAG (sugars e3 k2 d7 k2 e3, PS)” was run?
A: 8%

Q: Which target mRNA inhibition (HepG2, 4 µM) does the source give for “TTGGGCGATCCCAATTA (sugars e2 k2 d9 k2 e2, PS)” here?
A: 5%

Q: How did the target mRNA inhibition (HepG2, 3 µM) turn out when “TTGGGCGATCCCAATTA (sugars e3 k2 d7 k2 e3, PS)” was run?
A: 26%

Q: “TTTAATGCTTCCCCACACCT (sugars e5 d10 e5, PS)” was tested. Which target mRNA inhibition (HepG2, 4 µM) did it give?
A: 15%

Q: How did the target mRNA inhibition (A431, 0.12 µM) turn out when “TTTAATGTTTATCAGG (sugars kekeddddddddekek, linkages s1 o3 s8 o1 s2)” was run?
A: 15%

Q: And the target mRNA inhibition (A431, 0.6 µM)?
A: 44%

Q: What about the target mRNA inhibition (A431, 3 µM) of the same sequence?
A: 73%

Q: And the target mRNA inhibition (A431, 15 µM)?
A: 85%

Q: And the target mRNA inhibition (HepG2, 0.222 µM)?
A: 73%

Q: What about the target mRNA inhibition (HepG2, 0.667 µM) of the same sequence?
A: 90%

Q: What about the target mRNA inhibition (HepG2, 2 µM) of the same sequence?
A: 93%

Q: What about the target mRNA inhibition (HepG2, 6 µM) of the same sequence?
A: 97%

Q: Which target mRNA inhibition (HepG2, 4 µM) does the source give for “TTTATAGGCCAGACCTCCGC (sugars e5 d10 e5, PS)” here?
A: 68% and 69%

Q: And the target mRNA inhibition (HepG2, 12 µM)?
A: 82%

Q: Which target mRNA inhibition (HepG2, 0.1875 µM) does the source give for “TTTCTACAGCTAGCAGG (sugars e2 k2 d8 k2 e3, PS)” here?
A: 16%

Q: What about the target mRNA inhibition (HepG2, 0.75 µM) of the same sequence?
A: 58%

Q: What about the target mRNA inhibition (HepG2, 3 µM) of the same sequence?
A: 78%

Q: What about the target mRNA inhibition (HepG2, 4 µM) of the same sequence?
A: 76%

Q: And the target mRNA inhibition (HepG2, 12 µM)?
A: 87%

Q: With “TTTCTACAGCTAGCAGG (sugars e3 k2 d7 k2 e3, PS)” as the sequence, how does the target mRNA inhibition (HepG2, 3 µM) read?
A: 38%

Q: “TTTCTCACTACAGGTAC (sugars e2 k2 d8 k2 e3, PS)” was tested. Which target mRNA inhibition (HepG2, 5 µM) did it give?
A: 35%

Q: Which target mRNA inhibition (HepG2, 5 µM) does the source give for “TTTCTGGATAGAGGATTAAA (sugars e5 d10 e5, PS)” here?
A: 6% and 14%

Q: Which target mRNA inhibition (HepG2, 5 µM) does the source give for “TTTGGATTCTTTTAATAGCC (sugars e5 d10 e5, PS)” here?
A: 14%

Q: Which target mRNA inhibition (HepG2, 5 µM) does the source give for “TTTGTCAGCAGTCACATTGC (sugars e5 d10 e5, PS)” here?
A: 26% and 16%

Q: With “TTTTAGTTTGAATTTGG (sugars e3 k2 d7 k2 e3, PS)” as the sequence, how does the target mRNA inhibition (HepG2, 3 µM) read?
A: 12%

Q: “TTTTATTCACAGGCTTG (sugars e3 k2 d7 k2 e3, PS)” was tested. Which target mRNA inhibition (HepG2, 3 µM) did it give?
A: 28%

Q: Which target mRNA inhibition (HepG2, 3 µM) does the source give for “TTTTTCATGGACCACCA (sugars e3 k2 d7 k2 e3, PS)” here?
A: 76%

— the OligoGym collection
